Laboratory results taken from PubChem BioAssay (NCI).
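Five compound concentrations were applied to cells in 96-well plates for 48 hours; endpoints were derived by simple linear interpolation of the resulting dose-response curve. TGI marks complete inhibition of growth.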

Assays:
Assay in all cases: NCI anticancer screen, dose series, 48 h
SR leukemia = system: SR leukemia
SN12C renal = system: SN12C renal
TK-10 renal = system: TK-10 renal
MALME-3M melanoma = system: MALME-3M melanoma
HCT-15 colon = system: HCT-15 colon
COLO 205 colon = system: COLO 205 colon
RPMI-8226 leukemia = system: RPMI-8226 leukemia
HT29 colon = system: HT29 colon
KM12 colon = system: KM12 colon
CAKI-1 renal = system: CAKI-1 renal
U251 CNS = system: U251 CNS
SNB-19 CNS = system: SNB-19 CNS
MDA-MB-435 = system: MDA-MB-435
OVCAR-8 ovarian = system: OVCAR-8 ovarian
CCRF-CEM leukemia = system: CCRF-CEM leukemia
HCT-116 colon = system: HCT-116 colon
HL-60(TB) leukemia = system: HL-60(TB) leukemia
M14 melanoma = system: M14 melanoma
K-562 leukemia = system: K-562 leukemia
OVCAR-3 ovarian = system: OVCAR-3 ovarian
NCI-H226 lung = system: NCI-H226 lung
NCI-H460 lung = system: NCI-H460 lung
OVCAR-5 ovarian = system: OVCAR-5 ovarian
MDA-N = system: MDA-N
HOP-92 NSCLC = system: HOP-92 NSCLC
SNB-75 CNS = system: SNB-75 CNS
MCF7 breast = system: MCF7 breast
IGROV1 ovarian = system: IGROV1 ovarian
HCC-2998 colon = system: HCC-2998 colon
UO-31 renal = system: UO-31 renal
RXF 393 renal = system: RXF 393 renal
NCI-H522 lung = system: NCI-H522 lung
ACHN renal = system: ACHN renal
SK-MEL-5 melanoma = system: SK-MEL-5 melanoma
A549 NSCLC = system: A549 NSCLC
T-47D breast = system: T-47D breast
OVCAR-4 ovarian = system: OVCAR-4 ovarian
HOP-62 NSCLC = system: HOP-62 NSCLC
LOX IMVI melanoma = system: LOX IMVI melanoma
UACC-257 melanoma = system: UACC-257 melanoma
SF-268 CNS = system: SF-268 CNS
MDA-MB-231 breast = system: MDA-MB-231 breast
A498 renal = system: A498 renal
SF-295 CNS = system: SF-295 CNS
NCI-H23 lung = system: NCI-H23 lung
HS 578T breast = system: HS 578T breast
UACC-62 melanoma = system: UACC-62 melanoma
SK-OV-3 ovarian = system: SK-OV-3 ovarian
NCI/ADR-RES ovarian = system: NCI/ADR-RES ovarian
SK-MEL-28 melanoma = system: SK-MEL-28 melanoma
MOLT-4 leukemia = system: MOLT-4 leukemia
EKVX NSCLC = system: EKVX NSCLC
SW-620 colon = system: SW-620 colon
PC-3 prostate = system: PC-3 prostate
SF-539 CNS = system: SF-539 CNS
786-0 renal = system: 786-0 renal
DU-145 prostate = system: DU-145 prostate

Measured: TGI

O=c1[nH]nc(Cc2ccccc2)n1C1CC1
> 100 µM: all assays above
